Assay results published in PubChem BioAssay AID1963435 (Molecular Pharmacology Branch, DTP, NCI, 2024).

System: PANC-1 complex spheroid growth, percent test/control
Assay: Anticancer human tumor PANC-1 cell line growth inhibition [Asc];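 note: spheroids exposed to agents for 7 days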;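 for viability, T/C: percent viability relative to DMSO vehicle wells taken as 100%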
Conditions: for IC50: curve of first compound; for viability, T/C: stronger effect = lower value
Summary of the method: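 Complex solid-tumor spheroids incorporating human endothelial and mesenchymal stem cells received single agents or combinations over half-log dilution ranges anchored to clinical Cmax.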

[1] = second compound 0.0316 µM, first compound 0.0316 µM
[2] = second compound 0.0316 µM, first compound 0.1 µM
[3] = second compound 0.0316 µM, first compound 0.316 µM
[4] = second compound 0.0316 µM, first compound 1 µM
[5] = second compound 0.1 µM, first compound 0.0316 µM
[6] = second compound 0.1 µM, first compound 0.1 µM
[7] = second compound 0.1 µM, first compound 0.316 µM
[8] = second compound 0.1 µM, first compound 1 µM
[9] = second compound 0.316 µM, first compound 0.0316 µM
[10] = second compound 0.316 µM, first compound 0.1 µM
[11] = second compound 0.316 µM, first compound 0.316 µM
[12] = second compound 0.316 µM, first compound 1 µM
[13] = second compound 1 µM, first compound 0.0316 µM
[14] = second compound 1 µM, first compound 0.1 µM
[15] = second compound 1 µM, first compound 0.316 µM
[16] = second compound 1 µM, first compound 1 µM

C=CC(=O)N1CCN(c2nc(=O)n(-c3c(C)ccnc3C(C)C)c3nc(-c4c(O)cccc4F)c(F)cc23)C(C)C1 (centres undefined) + Cc1c(S(C)(=O)=O)c(-c2cc(F)cc(N3CCN(c4ccc(NS(=O)(=O)c5ccc(NC(CCN6CCC(C(=O)OCCCP(=O)(O)O)CC6)CSc6ccccc6)c(S(=O)(=O)C(F)(F)F)c5)cc4)CC3)c2)c(-c2ccc(Cl)cc2)n1C(C)C
IC50 (second compound 0.0316 µM): > 10000 nM | IC50 (second compound 0.1 µM): > 10000 nM | IC50 (second compound 0.316 µM): > 10000 nM | IC50 (second compound 1 µM): > 10000 nM | IC50 (second compound 3.16 µM): > 10000 nM | IC50 (second compound 10 µM): > 10000 nM | viability, T/C [1]: 98.5% | viability, T/C [2]: 95.1% | viability, T/C [3]: 93.7% | viability, T/C [4]: 89.7% | viability, T/C (second compound 0.0316 µM, first compound 3.16 µM): 98.5% | viability, T/C (second compound 0.0316 µM, first compound 10 µM): 88.2% | viability, T/C [5]: 99.3% | viability, T/C [6]: 90.3% | viability, T/C [7]: 105% | viability, T/C [8]: 106% | viability, T/C (second compound 0.1 µM, first compound 3.16 µM): 88.8% | viability, T/C (second compound 0.1 µM, first compound 10 µM): 94.5% | viability, T/C [9]: 107% | viability, T/C [10]: 97% | viability, T/C [11]: 105% | viability, T/C [12]: 105% | viability, T/C (second compound 0.316 µM, first compound 3.16 µM): 98.4% | viability, T/C (second compound 0.316 µM, first compound 10 µM): 98% | viability, T/C [13]: 96.2% | viability, T/C [14]: 104% | viability, T/C [15]: 107% | viability, T/C [16]: 114% | viability, T/C (second compound 1 µM, first compound 3.16 µM): 95.6% | viability, T/C (second compound 1 µM, first compound 10 µM): 92.6% | viability, T/C (second compound 3.16 µM, first compound 0.0316 µM): 107% | viability, T/C (second compound 3.16 µM, first compound 0.1 µM): 109% | viability, T/C (second compound 3.16 µM, first compound 0.316 µM): 104% | viability, T/C (second compound 3.16 µM, first compound 1 µM): 102% | viability, T/C (second compound 3.16 µM, first compound 3.16 µM): 109% | viability, T/C (second compound 3.16 µM, first compound 10 µM): 92.4% | viability, T/C (second compound 10 µM, first compound 0.0316 µM): 166% | viability, T/C (second compound 10 µM, first compound 0.1 µM): 166% | viability, T/C (second compound 10 µM, first compound 0.316 µM): 162% | viability, T/C (second compound 10 µM, first compound 1 µM): 177% | viability, T/C (second compound 10 µM, first compound 3.16 µM): 175% | viability, T/C (second compound 10 µM, first compound 10 µM): 135%

COc1c(OCCCN2CCOCC2)ccc2c3n(c(=NC(=O)c4cnc(N)nc4)nc12)CCN3 + CNC(C)C(=O)NC1CN(S(=O)(=O)c2cccc(S(=O)(=O)N3CCC4CCC(C(=O)NC(c5ccccc5)c5ccccc5)N4C(=O)C(NC(=O)C(C)NC)C3)c2)CCC2CCC(C(=O)NC(c3ccccc3)c3ccccc3)N2C1=O
IC50 (second compound 0.00316 µM): 289 nM | IC50 (second compound 0.01 µM): 225 nM | IC50 (second compound 0.0316 µM): 199 nM | IC50 (second compound 0.1 µM): 157 nM | IC50 (second compound 0.316 µM): 159 nM | IC50 (second compound 1 µM): 191 nM | viability, T/C (second compound 0.00316 µM, first compound 0.00316 µM): 107% | viability, T/C (second compound 0.00316 µM, first compound 0.01 µM): 92.4% | viability, T/C (second compound 0.00316 µM, first compound 0.0316 µM): 87.6% | viability, T/C (second compound 0.00316 µM, first compound 0.1 µM): 74.8% | viability, T/C (second compound 0.00316 µM, first compound 0.316 µM): 45.6% | viability, T/C (second compound 0.00316 µM, first compound 1 µM): 18.7% | viability, T/C (second compound 0.01 µM, first compound 0.00316 µM): 96.1% | viability, T/C (second compound 0.01 µM, first compound 0.01 µM): 95.5% | viability, T/C (second compound 0.01 µM, first compound 0.0316 µM): 94.2% | viability, T/C (second compound 0.01 µM, first compound 0.1 µM): 65.7% | viability, T/C (second compound 0.01 µM, first compound 0.316 µM): 44% | viability, T/C (second compound 0.01 µM, first compound 1 µM): 15.6% | viability, T/C (second compound 0.0316 µM, first compound 0.00316 µM): 95.2% | viability, T/C (second compound 0.0316 µM, first compound 0.01 µM): 99.1% | viability, T/C [1]: 89.9% | viability, T/C [2]: 62.8% | viability, T/C [3]: 41.3% | viability, T/C [4]: 13.2% | viability, T/C (second compound 0.1 µM, first compound 0.00316 µM): 103% | viability, T/C (second compound 0.1 µM, first compound 0.01 µM): 90.7% | viability, T/C [5]: 82.1% | viability, T/C [6]: 56.6% | viability, T/C [7]: 36.8% | viability, T/C [8]: 12.3% | viability, T/C (second compound 0.316 µM, first compound 0.00316 µM): 98.7% | viability, T/C (second compound 0.316 µM, first compound 0.01 µM): 91.7% | viability, T/C [9]: 85.2% | viability, T/C [10]: 56.9% | viability, T/C [11]: 36.8% | viability, T/C [12]: 14.6% | viability, T/C (second compound 1 µM, first compound 0.00316 µM): 86.9% | viability, T/C (second compound 1 µM, first compound 0.01 µM): 96.9% | viability, T/C [13]: 83.1% | viability, T/C [14]: 66.4% | viability, T/C [15]: 37.4% | viability, T/C [16]: 15.5%
